Reference: patent US20230312587A1, “PTERIDINONE COMPOUNDS AND USES THEREOF” (Vertex Pharmaceutical Incorporated, priority 2018, published 2023)
pKi: −log10 of the molar value. Where two headings read alike, the source gives them in different places. Blank lines part the entries; values can stand above or below the compound they belong to.

What was measured:
[1] = tested on: non-small cell lung cancer (NSCLC) adenocarcinoma line D33966; experiment: In vivo efficacy, NSCLC patient derived xenograft OD33966; set-up: species or system nu/nu mice; conditions: NSCLC PDX OD33966, oral, 100 mpk qd, treatment day 14
Experimental: Female immune deficient mice (Charles River, 4-6 wks age) were anesthetized with Ketamine-Xylazine (140 mg/kg-14 mg/kg ip) and shaved. Puralube eye ointment was applied to the eyes to prevent desiccation of the corneas. Betadine and 70% ethanol was applied to the shaved location to sterilize the skin at the location of the incision. The animals were placed in a biosafety cabinet for the duration of the surgery. Using scissors, an 8 to 10 mm incision was made in the lateral flank of the skin. A tumor fragment weighing between 50 and 150 mg was placed under the skin at the incision site using forceps, and staples were used to close the incision. The staples were removed 5 to 7 days after surgery. Starting approximately two weeks after implantation, animals were weighed, and tumors were measured using caliper twice weekly. Tumor volume was calculated using the formula: volume=length×width^2×0.52.
Compound administration began when xenografts reached approximately 100-300 mm3 and continued until control xenografts reached […] of the animal's body weight. Test compounds were administered orally by gastric gavage. Percent tumor growth inhibition (TG) was calculated on the indicated treatment day. Percent TGI is defined as: [1−(del T/del C)]×100%, where del T is the final minus initial average volumes of the treated group, and del C is the final minus initial average volumes of the control group. […] The tested compounds were administered orally. Vehicle control consisted of either 0.5% methylcellulose/0.1% sodium lauryl sulfate or 20% captisol. Tumor volumes were determined by caliper measurement twice a week.

[2] = tested on: Colo-205 cells, shRNA targeting WFS1; experiment: Cell viability, Colo-205 WFS1 shRNA; format: cell-based; conditions: for IC50: Colo-205 WFS1 shRNA; for increase in the IC50 in reducing cell viability on WFS1 knockdown: DU4475, Colo-205 and HepG2 cells, WFS1 shRNA vs control cells
Experimental: (§1) Colo-205 (ATCC, catalog #CCL-222), HepG2 (ATCC, catalog #HB-8065), CFPAC1 (ATCC, catalog #CRL-1918), or DU4475 (ATCC, catalog #HTB-123) cells are plated in 10 mL of complete DMEM cell culture media [DMEM (Life Technologies, product #11960-051) media supplemented with 10% FBS (Hyclone, catalog #SH30071.03), antimycotic/antibiotic (Life Technologies, product #15240-062), and Glutamax (Life Technologies, product #35050-061)] at 3×10^6 cells per 10 cm cell culture plate (Corning, product #430167). Cells are allowed to attach and grow overnight at 37° C. in humidified 5% CO2. Cells are transduced by addition of 1×10^6 infectious units of lentivirus encoding WFS1 shRNA (Santa Cruz Biotech, catalog #sc-61804-V) or a non-targeting control shRNA (Santa Cruz Biotech, catalog #sc-108080) and 10 ug/ml of Polybrene® (Santa Cruz Biotech, catalog #sc-134220) to the cell culture media. After 48 hours transduced cells are selected by the addition of 1 microgram/mL of puromycin (Life Technologies, catalog #A1113803) to the cell culture media.

[3] = biological target: Plk1 (Homo sapiens (Human), UniProt P53350); experiment: PLK1 inhibition assay (radioactive-phosphate incorporation); format: biochemical; conditions: Ki(app), read-out: PLK1 - 33P.ENZ - CB 10 Ki
How it was run: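 Radioactive-phosphate incorporation with 15 nM Plk1 and 9 µM Sam68 substrate, 20 µM [γ-33P]ATP, in 25 mM HEPES pH 7.5, 10 mM MgCl2, 25 mM NaCl, 2 mM DTT, 1.5% DMSO, room temperature, 45 min. Stopped with TCA/cold ATP, filtered, scintillation counted. Ki(app) from non-linear regression of background-corrected initial rates.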

[4] = tested on: DU4475 Control shRNA; experiment: TCF reporter activity, DU4475 Control shRNA; format: cell-based
Experimental: as §1

[5] = tested on: Colo-205 Control shRNA; experiment: TCF reporter activity, Colo-205 Control shRNA; format: cell-based
Experimental: as §1

[6] = tested on: DU4475 WFS1 shRNA; experiment: TCF reporter activity, DU4475 WFS1 shRNA; format: cell-based
Experimental: as §1

[7] = tested on: HepG2 cells, shRNA targeting WFS1; experiment: Cell viability, HepG2 WFS1 shRNA; format: cell-based
Experimental: as §1

[8] = tested on: HepG2 cells, non-targeting control shRNA; experiment: Cell viability, HepG2 control shRNA; format: cell-based
Experimental: as §1

[9] = tested on: Colo-205 cells, non-targeting control shRNA; experiment: Cell viability, Colo-205 control shRNA; format: cell-based
Experimental: as §1

[10] = tested on: Colo-205 WFS1 shRNA; experiment: TCF reporter activity, Colo-205 WFS1 shRNA; format: cell-based
Experimental: as §1

[11] = tested on: DU4475 cells, shRNA targeting WFS1; experiment: Cell viability, DU4475 WFS1 shRNA; format: cell-based
Experimental: as §1

[12] = tested on: DU4475 cells, non-targeting control shRNA; experiment: Cell viability, DU4475 control shRNA; format: cell-based
Experimental: as §1

Sequence of Plk1 (P53350 whole entry, species assumed): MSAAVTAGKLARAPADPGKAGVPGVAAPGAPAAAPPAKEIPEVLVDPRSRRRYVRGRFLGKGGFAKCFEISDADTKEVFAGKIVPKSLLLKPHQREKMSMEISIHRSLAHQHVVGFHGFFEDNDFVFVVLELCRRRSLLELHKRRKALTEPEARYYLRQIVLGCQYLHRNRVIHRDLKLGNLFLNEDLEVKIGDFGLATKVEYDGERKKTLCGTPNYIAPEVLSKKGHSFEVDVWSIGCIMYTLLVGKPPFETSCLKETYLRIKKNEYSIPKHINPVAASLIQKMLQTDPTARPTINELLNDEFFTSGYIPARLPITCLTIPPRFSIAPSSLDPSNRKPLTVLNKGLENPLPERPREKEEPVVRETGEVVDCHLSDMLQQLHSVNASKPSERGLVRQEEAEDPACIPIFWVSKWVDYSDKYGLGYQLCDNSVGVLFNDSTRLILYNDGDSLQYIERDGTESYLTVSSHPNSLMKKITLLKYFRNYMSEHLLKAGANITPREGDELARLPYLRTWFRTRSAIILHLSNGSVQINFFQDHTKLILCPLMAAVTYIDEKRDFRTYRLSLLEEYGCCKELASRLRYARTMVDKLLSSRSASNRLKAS

SMILES: Cc1nc(NCc2cnn(Cc3ccc(C(F)(F)F)nc3)c2)nc2c1NC(=O)[C@H](C)N2C [Compound 136, (7S)-4,7,8-trimethyl-2-(((1-((6-(trifluoromethyl)pyridin-3-yl)methyl)-111-pyrazol-4-yl)methyl)amino)-7,8-dihydropteridin-6(5H)-one]
% TGI [1]: 106.65%
IC50 [2]: > 9 µM
increase in the IC50 in reducing cell viability on WFS1 knockdown [2]: greater than 50 fold
pKi [3]: < 5.40
IC50 [4]: 0.09 µM
IC50 [5]: 0.1 µM
IC50 [6]: 0.7 µM
IC50 [7]: 2.2 µM
IC50 [8]: 0.26 µM
IC50 [9]: 0.05 µM
IC50 [10]: 0.7 µM
IC50 [11]: 6.1 µM
IC50 [12]: 0.08 µM

increase in the IC50 in reducing cell viability on WFS1 knockdown [2]: greater than 50 fold
IC50 ([2]; Homo sapiens): > 9 µM
pKi [3]: < 5.40
IC50 ([4]; Homo sapiens, DU-4475): 0.2 µM
IC50 ([5]; Homo sapiens): 0.2 µM
IC50 ([6]; Homo sapiens, DU-4475): 1 µM
IC50 ([7]; Homo sapiens): 17 µM
IC50 ([8]; Homo sapiens): 0.2 µM
IC50 ([9]; Homo sapiens): 0.14 µM
IC50 ([10]; Homo sapiens): 1.5 µM
SMILES: Cc1nc(N[C@H]2C[C@H](Oc3cc(F)c(F)c(F)c3)C2)nc2c1N(C)C(=O)[C@H](C)N2C [Compound 253, (7S)-4,5,7,8-tetramethyl-2-((trans-3-(3,4,5-trifluorophenoxy)cyclobutyl)amino)-7,8-dihydropteridin-6(5H)-one]
inhibition in vivo at 100 mg/kg ([1]; Mus musculus, 336 h, read-out: % TGI): 96.6%
IC50 ([11]; Homo sapiens, DU-4475): 7.8 µM
IC50 ([12]; Homo sapiens, DU-4475): 0.1 µM
